Test results: ChEMBL document CHEMBL4024706 (Eur J Med Chem, 2017)
pEC50: −log10 of the molar value.

Assays:
[1] = target: Serine/threonine-protein kinase PRP4 homolog (Homo sapiens) (UniProt Q13523); assay: Inhibition of wild-type human partial length PRP4 (D657 to I1007 residues) expressed in bacterial expression system assessed as residual activity at 1 uM by Kinomescan method relative to control
[2] = target: Cyclin-dependent kinase 3 (Homo sapiens) (UniProt Q00526); assay: Inhibition of wild-type human full length CDK3 (M1 to H305 residues) expressed in bacterial expression system assessed as residual activity at 1 uM by Kinomescan method relative to control
[3] = target: Ephrin type-B receptor 4 (Homo sapiens) (UniProt P54760); assay: Inhibition of wild-type human partial length EPHB4 (H585 to G892 residues) expressed in bacterial expression system assessed as residual activity at 1 uM by Kinomescan method relative to control
[4] = target: Tyrosine-protein kinase BTK (Homo sapiens, UniProt Q06187); assay: Inhibition of BTK auto-phosphorylation at Y223 in human U2932 cells measured after 4 hrs by chemiluminescent assay
[5] = target: Serine/threonine-protein kinase ULK2 (Homo sapiens) (UniProt Q8IYT8); assay: Inhibition of wild-type human partial length ULK2 (M1 to S301 residues) expressed in mammalian expression system assessed as residual activity at 1 uM by Kinomescan method relative to control
[6] = test system: Tyrosine-protein kinase ABL1 (Homo sapiens), P00519 [Q252H]; assay: Inhibition of human phosphorylated ABL1 Q252H mutant expressed in mammalian expression system assessed as residual activity at 1 uM by Kinomescan method relative to control
Ramos = assay: Growth inhibition of human Ramos cells; format: functional; details: Homo sapiens, Ramos
[7] = target: Leucine-rich repeat serine/threonine-protein kinase 2 (Homo sapiens) (UniProt Q5S007); assay: Inhibition of wild-type human partial length LRRK2 (H970 to E2527 residues) expressed in mammalian expression system assessed as residual activity at 1 uM by Kinomescan method relative to control
[8] = target: Serine/threonine-protein kinase NIM1 (Homo sapiens) (UniProt Q8IY84); assay: Inhibition of wild-type human partial length NIM1 (Q44 to N355 residues) expressed in mammalian expression system assessed as residual activity at 1 uM by Kinomescan method relative to control
[9] = target: Mitogen-activated protein kinase kinase kinase kinase 4 (Homo sapiens) (UniProt O95819); assay: Inhibition of wild-type human partial length MAP4K4 (M1 to R310 residues) expressed in bacterial expression system assessed as residual activity at 1 uM by Kinomescan method relative to control
[10] = target: Casein kinase I isoform gamma-2 (Homo sapiens) (UniProt P78368); assay: Inhibition of wild-type human full length CSNK1G2 (M1 to K415 residues) expressed in bacterial expression system assessed as residual activity at 1 uM by Kinomescan method relative to control
[11] = test system: Hepatocyte growth factor receptor (Homo sapiens), P08581 [Y1235D]; assay: Inhibition of human partial length MET Y1235D mutant (D1010 to S1367 residues) expressed in bacterial expression system assessed as residual activity at 1 uM by Kinomescan method relative to control
Homo sapiens = species on record: Homo sapiens; assay: Inhibition of human partial length FLT3 ITD mutant expressed in bacterial expression system assessed as residual activity at 1 uM by Kinomescan method relative to control
[12] = target: Hormonally up-regulated neu tumor-associated kinase (Homo sapiens) (UniProt P57058); assay: Inhibition of wild-type human partial length HUNK (A31 to K354 residues) expressed in bacterial expression system assessed as residual activity at 1 uM by Kinomescan method relative to control
[13] = target: Serine/threonine-protein kinase DCLK3 (Homo sapiens) (UniProt Q9C098); assay: Inhibition of wild-type human partial length DCAMKL3 (E140 to V628 residues) expressed in bacterial expression system assessed as residual activity at 1 uM by Kinomescan method relative to control
[14] = target: Serine/threonine-protein kinase mTOR (Homo sapiens) (UniProt P42345); assay: Inhibition of wild-type human partial length MTOR (L1382 to W2549 residues) expressed in mammalian expression system assessed as residual activity at 1 uM by Kinomescan method relative to control
[15] = target: Mitogen-activated protein kinase kinase kinase 6 (Homo sapiens) (UniProt O95382); assay: Inhibition of wild-type human partial length ASK2 (M278 to R972 residues) expressed in mammalian expression system assessed as residual activity at 1 uM by Kinomescan method relative to control
[16] = target: Dual specificity mitogen-activated protein kinase kinase 6 (Homo sapiens) (UniProt P52564); assay: Inhibition of wild-type human partial length MEK6 (K36 to D334 residues) expressed in bacterial expression system assessed as residual activity at 1 uM by Kinomescan method relative to control
[17] = test system: Tyrosine-protein kinase ABL1 (Homo sapiens), P00519 [T315I]; assay: Inhibition of human phosphorylated ABL1 T315I mutant (S229 to K512 residues) expressed in mammalian expression system assessed as residual activity at 1 uM by Kinomescan method relative to control
[18] = target: Tyrosine-protein kinase SYK (Homo sapiens) (UniProt P43405); assay: Inhibition of wild-type human partial length SYK (D354 to N635 residues) expressed in bacterial expression system assessed as residual activity at 1 uM by Kinomescan method relative to control
[19] = target: RAC-alpha serine/threonine-protein kinase (Homo sapiens) (UniProt P31749); assay: Inhibition of wild-type human partial length AKT1 expressed in bacterial expression system assessed as residual activity at 1 uM by Kinomescan method relative to control
[20] = target: Receptor-interacting serine/threonine-protein kinase 1 (Homo sapiens) (UniProt Q13546); assay: Inhibition of wild-type human partial length RIPK1 (M1 to K305 residues) expressed in bacterial expression system assessed as residual activity at 1 uM by Kinomescan method relative to control
[21] = target: Serine/threonine-protein kinase 16 (Homo sapiens) (UniProt O75716); assay: Inhibition of wild-type human partial length STK16 (G11 to I305 residues) expressed in bacterial expression system assessed as residual activity at 1 uM by Kinomescan method relative to control
[22] = target: TRAF2 and NCK-interacting protein kinase (Homo sapiens) (UniProt Q9UKE5); assay: Inhibition of wild-type human partial length TNIK (D4 to K311 residues) expressed in bacterial expression system assessed as residual activity at 1 uM by Kinomescan method relative to control
[23] = target: Ephrin type-A receptor 8 (Homo sapiens) (UniProt P29322); assay: Inhibition of wild-type human partial length EPHA8 (Q608 to C920 residues) expressed in bacterial expression system assessed as residual activity at 1 uM by Kinomescan method relative to control
[24] = target: Tyrosine-protein kinase JAK2 (Homo sapiens) (UniProt O60674); assay: Inhibition of wild-type human partial length JAK2 JH1 catalytic domain (A829 to G1132 residues) expressed in mammalian expression system assessed as residual activity at 1 uM by Kinomescan method relative to control

Sequence of Mitogen-activated protein kinase kinase kinase kinase 4 (Homo sapiens) (O95819 2-1239 limits assumed): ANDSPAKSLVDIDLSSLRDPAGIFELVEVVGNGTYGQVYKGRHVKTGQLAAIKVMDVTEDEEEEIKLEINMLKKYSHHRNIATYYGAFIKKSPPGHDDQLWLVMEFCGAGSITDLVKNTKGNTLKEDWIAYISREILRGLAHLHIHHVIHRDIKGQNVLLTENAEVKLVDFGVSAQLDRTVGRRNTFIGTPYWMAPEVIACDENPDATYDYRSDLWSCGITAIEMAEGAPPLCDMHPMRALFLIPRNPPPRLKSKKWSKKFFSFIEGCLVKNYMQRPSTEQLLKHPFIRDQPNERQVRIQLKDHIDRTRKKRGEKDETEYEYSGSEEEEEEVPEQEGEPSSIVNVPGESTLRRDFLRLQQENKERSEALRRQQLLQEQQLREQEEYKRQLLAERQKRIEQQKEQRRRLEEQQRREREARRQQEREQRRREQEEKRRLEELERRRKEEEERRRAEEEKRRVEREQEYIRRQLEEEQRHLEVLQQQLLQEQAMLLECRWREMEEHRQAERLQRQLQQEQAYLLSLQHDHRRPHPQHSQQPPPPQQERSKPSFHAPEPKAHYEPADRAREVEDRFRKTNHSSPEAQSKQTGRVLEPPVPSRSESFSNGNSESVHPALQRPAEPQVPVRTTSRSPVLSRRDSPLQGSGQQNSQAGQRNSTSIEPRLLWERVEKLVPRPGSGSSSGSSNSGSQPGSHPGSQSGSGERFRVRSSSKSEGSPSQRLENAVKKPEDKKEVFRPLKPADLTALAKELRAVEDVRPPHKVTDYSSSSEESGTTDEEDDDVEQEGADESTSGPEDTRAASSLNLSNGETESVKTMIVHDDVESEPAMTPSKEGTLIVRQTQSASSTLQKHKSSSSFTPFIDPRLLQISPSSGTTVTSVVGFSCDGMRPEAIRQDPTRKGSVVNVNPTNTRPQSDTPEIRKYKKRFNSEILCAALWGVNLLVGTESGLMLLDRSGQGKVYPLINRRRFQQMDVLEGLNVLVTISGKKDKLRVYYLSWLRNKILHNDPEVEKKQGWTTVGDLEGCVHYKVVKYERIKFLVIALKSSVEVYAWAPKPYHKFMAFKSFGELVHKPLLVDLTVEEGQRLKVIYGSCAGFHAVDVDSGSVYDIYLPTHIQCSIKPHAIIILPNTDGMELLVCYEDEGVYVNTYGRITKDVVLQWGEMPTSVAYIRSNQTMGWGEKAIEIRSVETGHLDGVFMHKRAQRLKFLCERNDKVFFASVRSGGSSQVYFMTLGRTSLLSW
Sequence of Ephrin type-B receptor 4 (Homo sapiens) (P54760 whole entry, the tested form may be a part): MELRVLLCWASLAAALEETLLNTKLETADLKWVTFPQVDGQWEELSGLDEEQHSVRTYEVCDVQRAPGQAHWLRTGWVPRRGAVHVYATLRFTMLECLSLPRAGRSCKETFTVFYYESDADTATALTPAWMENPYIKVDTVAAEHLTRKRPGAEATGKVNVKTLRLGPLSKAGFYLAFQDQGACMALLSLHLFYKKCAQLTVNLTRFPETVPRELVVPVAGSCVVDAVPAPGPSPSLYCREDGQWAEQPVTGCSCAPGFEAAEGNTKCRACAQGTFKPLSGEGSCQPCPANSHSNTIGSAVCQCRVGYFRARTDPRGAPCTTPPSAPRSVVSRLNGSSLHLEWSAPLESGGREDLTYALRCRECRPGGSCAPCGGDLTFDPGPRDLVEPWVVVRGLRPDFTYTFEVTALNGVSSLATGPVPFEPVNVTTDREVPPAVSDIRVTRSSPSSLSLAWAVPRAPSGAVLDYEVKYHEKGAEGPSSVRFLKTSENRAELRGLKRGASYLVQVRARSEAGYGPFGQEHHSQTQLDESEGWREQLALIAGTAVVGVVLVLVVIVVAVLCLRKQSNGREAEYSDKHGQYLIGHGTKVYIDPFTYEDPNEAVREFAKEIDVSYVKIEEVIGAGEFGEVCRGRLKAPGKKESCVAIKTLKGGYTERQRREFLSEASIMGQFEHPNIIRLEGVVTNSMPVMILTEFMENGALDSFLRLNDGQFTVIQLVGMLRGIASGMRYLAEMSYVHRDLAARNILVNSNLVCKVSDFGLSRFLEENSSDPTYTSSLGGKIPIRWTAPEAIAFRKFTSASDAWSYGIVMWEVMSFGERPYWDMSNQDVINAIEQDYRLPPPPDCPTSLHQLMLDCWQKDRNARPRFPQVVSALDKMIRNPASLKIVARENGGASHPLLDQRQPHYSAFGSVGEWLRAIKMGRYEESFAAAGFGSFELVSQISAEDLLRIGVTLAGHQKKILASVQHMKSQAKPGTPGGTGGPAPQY
Sequence of Serine/threonine-protein kinase 16 (Homo sapiens) (O75716 whole entry, the tested form may be a part): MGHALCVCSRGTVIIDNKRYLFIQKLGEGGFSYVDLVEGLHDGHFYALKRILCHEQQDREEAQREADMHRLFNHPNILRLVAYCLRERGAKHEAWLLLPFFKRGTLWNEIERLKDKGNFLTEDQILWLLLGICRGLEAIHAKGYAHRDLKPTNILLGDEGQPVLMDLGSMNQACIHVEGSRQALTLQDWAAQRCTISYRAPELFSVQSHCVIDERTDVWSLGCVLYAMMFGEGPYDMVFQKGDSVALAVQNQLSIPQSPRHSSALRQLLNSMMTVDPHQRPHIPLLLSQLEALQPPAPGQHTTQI
Sequence of TRAF2 and NCK-interacting protein kinase (Homo sapiens) (Q9UKE5 whole entry, looked up, the tested form may be a part): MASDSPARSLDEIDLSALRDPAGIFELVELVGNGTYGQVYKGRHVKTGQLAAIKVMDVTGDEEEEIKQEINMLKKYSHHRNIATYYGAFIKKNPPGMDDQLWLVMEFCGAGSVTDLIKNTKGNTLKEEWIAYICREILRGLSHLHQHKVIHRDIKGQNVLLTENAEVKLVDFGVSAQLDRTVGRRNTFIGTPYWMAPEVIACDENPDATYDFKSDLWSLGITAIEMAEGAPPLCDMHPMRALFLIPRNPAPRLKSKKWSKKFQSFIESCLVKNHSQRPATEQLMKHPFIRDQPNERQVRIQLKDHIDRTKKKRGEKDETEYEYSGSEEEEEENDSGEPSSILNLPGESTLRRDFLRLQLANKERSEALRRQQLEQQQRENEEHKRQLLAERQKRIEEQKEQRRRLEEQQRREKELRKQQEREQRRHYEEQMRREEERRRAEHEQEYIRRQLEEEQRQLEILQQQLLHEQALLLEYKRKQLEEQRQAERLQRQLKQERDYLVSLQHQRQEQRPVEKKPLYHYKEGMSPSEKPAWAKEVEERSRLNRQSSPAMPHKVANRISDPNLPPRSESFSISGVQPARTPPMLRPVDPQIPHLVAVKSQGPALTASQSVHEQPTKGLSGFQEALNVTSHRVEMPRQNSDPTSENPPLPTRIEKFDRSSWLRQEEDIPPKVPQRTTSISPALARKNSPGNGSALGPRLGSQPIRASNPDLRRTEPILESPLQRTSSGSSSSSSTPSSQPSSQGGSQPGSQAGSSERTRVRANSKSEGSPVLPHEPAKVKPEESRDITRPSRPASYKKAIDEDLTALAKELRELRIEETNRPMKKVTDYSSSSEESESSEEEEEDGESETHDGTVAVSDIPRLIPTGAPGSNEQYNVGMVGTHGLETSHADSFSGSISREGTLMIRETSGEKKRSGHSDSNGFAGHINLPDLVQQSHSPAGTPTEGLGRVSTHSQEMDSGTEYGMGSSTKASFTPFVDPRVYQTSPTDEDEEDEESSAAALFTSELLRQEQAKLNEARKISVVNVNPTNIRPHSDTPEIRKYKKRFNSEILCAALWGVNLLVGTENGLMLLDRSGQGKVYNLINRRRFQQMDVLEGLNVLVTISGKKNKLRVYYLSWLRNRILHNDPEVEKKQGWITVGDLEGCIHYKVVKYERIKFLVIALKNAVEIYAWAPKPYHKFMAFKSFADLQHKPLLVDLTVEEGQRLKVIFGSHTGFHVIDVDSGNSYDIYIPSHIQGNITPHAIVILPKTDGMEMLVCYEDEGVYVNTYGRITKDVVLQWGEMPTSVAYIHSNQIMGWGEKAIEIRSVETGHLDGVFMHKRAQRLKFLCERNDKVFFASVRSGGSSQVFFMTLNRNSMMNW
Sequence of Serine/threonine-protein kinase PRP4 homolog (Homo sapiens) (Q13523 whole entry, the tested form may be a part): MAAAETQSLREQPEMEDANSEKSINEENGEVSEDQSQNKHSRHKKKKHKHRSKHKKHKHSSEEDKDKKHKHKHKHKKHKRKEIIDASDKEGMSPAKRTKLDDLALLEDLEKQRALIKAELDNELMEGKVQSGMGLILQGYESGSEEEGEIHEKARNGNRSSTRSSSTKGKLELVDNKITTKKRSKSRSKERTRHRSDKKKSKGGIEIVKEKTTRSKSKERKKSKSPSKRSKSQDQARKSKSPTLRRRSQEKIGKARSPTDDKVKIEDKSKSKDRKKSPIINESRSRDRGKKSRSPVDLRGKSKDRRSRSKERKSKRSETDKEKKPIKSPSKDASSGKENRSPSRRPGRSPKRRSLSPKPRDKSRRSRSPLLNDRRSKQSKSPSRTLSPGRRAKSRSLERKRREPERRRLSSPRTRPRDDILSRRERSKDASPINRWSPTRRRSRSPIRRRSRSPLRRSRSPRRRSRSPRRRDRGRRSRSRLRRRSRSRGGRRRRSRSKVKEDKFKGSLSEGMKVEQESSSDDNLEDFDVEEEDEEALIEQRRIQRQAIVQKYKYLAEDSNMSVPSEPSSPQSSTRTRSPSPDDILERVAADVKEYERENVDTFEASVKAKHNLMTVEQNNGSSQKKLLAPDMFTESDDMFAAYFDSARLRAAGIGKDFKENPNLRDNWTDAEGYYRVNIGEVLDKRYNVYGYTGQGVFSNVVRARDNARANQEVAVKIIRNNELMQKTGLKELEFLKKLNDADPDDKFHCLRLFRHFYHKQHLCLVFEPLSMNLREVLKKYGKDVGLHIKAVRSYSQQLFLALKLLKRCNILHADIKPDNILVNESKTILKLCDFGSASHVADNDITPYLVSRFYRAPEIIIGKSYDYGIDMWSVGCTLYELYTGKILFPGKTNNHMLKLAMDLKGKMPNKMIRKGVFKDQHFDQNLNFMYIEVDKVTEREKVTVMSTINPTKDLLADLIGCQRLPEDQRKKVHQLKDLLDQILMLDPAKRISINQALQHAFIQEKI

Work on `C=CC(=O)Nc1cc(Nc2cc(-c3cccc(NC(=O)c4ccc(C(C)(C)C)cc4)c3C)cn(C)c2=O)ccc1C(=O)N1CCOCC1` yielded an Activity [1] of 100%, an Activity [2] of 97% and an Activity [3] of 88%. For the same compound, the pEC50 [4] was over 7.52, the Activity [5] was 80% and the Activity [6] was 100%. The GI50 (Ramos) was 3.5 µM, the Activity [7] was 100% and the Activity [8] was 100%. The Activity [9] was 86%, the Activity [10] was 94% and the Activity [11] was 89%. It also gave an Activity (Homo sapiens) of 90%, an Activity [12] of 77% and an Activity [13] of 100%. It also gave an Activity [14] of 100%, an Activity [15] of 95% and an Activity [16] of 100%. It also gave an Activity [17] of 93%, an Activity [18] of 92% and an Activity [19] of 100%. For the same compound, the Activity [20] was 100%, the Activity [21] was 99% and the Activity [22] was 97%. It also gave an Activity [23] of 97% and an Activity [24] of 73%.
